# Source: patent US8969299B2, “Therapeutic agents for regulating serum phosphorus” (KAI Pharmaceuticals, Inc., priority 2011, dated 2015)
# Peptide text beside a SMILES is read from it.
# What was measured:
# 1K1C model animals = experiment: plasma PTH reduction after 30-minute IV infusion in 1K1C model animals; format: in vivo; conditions: 3 mg/kg; for effect on plasma PTH: 30-minute IV infusion; for mean PTH reduction: 24 hour time point
# Source text: These compounds include (i) Ac-crrrr-NH2 (SEQ ID NO:4), (ii) Ac-crrrrr-NH2 (SEQ ID NO:5), (iii) Ac-crrrrrr-NH2 (SEQ ID NO:6), and (iv) Ac-crrrrrrr-NH2 (SEQ ID NO:7). In previous studies, the compounds identified as SEQ ID NO:4, SEQ ID NO:5, SEQ ID NO:6 and SEQ ID NO:7 were each administered by a 30-minute IV infusion to 1K1C model animals and effected a reduction in plasma PTH levels as a percent of the pre-dosing (baseline) level. […] These latter two compounds produced a mean PTH reduction of ˜40% and 60% at the 24 hour time point, respectively. It should be noted that the compounds in this study were administered at the same mg/kg dose but, due to differences in molecular weight, a different number of moles of each compound was actually dosed.
# PTH blood concentration = experiment: in vivo PTH-lowering activity (species not stated)
# Description: The contribution of the thiol-containing group in the X1 subunit of the compound (e.g., in certain embodiments where the compound is a peptide on the N-terminal residue), was also investigated in an in vivo study. The PTH-lowering activity of the peptides identified as SEQ ID NO:26 (Ac-carrrar-NH2) and as SEQ ID NO:29 (Ac-arrrar-NH2) was evaluated in vivo.
# normal rats = experiment: PTH reduction in vivo in normal rats; design: species or system rat; conditions: for decrease in percent PTH: after a single IV administration in normal rats
# Description: The data illustrate that cationic and uncharged residues at different positions are not all equal and there are changes in activity as a result of change in the compound structure.
# The structure-activity relationship of the thiol-containing group in the X1 subunit of the compound was further analyzed by preparing compounds with differing X1 subunits. The compounds, were tested in vivo in normal rats for activity to reduce PTH. The data illustrated that the thiol-containing X1 subunit can be varied. Compounds with the following in the N-terminal residue were tested—D-cysteine (cys), D-penicillamine (dPen), d-homocysteine (dHcy) and mercaptopropionic acid (Mpa). In addition, a natural or non-natural amino acid, such as beta alanine, can be conjugated to the N-terminal thiol-containing residue. The data illustrated that cationic compounds such as […] (SEQ ID NO:6) containing different thiol-containing groups in the X1 subunit effectively reduce PTH in vivo.
# In another study of the structure activity relationship, the contribution of non-cationic amino acids to the potency of the peptides was evaluated by preparing a series of peptides with various D-amino acid residues or glycine or with sterically-hindered non-natural amino acids, substituted at various positions in the peptide Ac-carrrar-NH2 (SEQ ID NO:26) and in the peptide Ac-crrarar-NH2 (SEQ ID NO:153). The peptides were administered as an IV bolus to normal Sprague Dawley rats at a dose of 0.5 mg/kg. An intravenous (IV) bolus of saline was used as a control. Plasma PTH levels were assessed prior to dosing and 1, 2, 3 and 4 hours after dosing.
# human CaSR = target: T1, human CaSR (Homo sapiens, UniProt P41180); experiment: IP1 production in HEK293 cells that express the human CaSR; format: cell-based; conditions: HEK 293 cells
# T1 construct: expressed in transfected cells; host or cells: HEK293
# T1 sequence (P41180 20-1078): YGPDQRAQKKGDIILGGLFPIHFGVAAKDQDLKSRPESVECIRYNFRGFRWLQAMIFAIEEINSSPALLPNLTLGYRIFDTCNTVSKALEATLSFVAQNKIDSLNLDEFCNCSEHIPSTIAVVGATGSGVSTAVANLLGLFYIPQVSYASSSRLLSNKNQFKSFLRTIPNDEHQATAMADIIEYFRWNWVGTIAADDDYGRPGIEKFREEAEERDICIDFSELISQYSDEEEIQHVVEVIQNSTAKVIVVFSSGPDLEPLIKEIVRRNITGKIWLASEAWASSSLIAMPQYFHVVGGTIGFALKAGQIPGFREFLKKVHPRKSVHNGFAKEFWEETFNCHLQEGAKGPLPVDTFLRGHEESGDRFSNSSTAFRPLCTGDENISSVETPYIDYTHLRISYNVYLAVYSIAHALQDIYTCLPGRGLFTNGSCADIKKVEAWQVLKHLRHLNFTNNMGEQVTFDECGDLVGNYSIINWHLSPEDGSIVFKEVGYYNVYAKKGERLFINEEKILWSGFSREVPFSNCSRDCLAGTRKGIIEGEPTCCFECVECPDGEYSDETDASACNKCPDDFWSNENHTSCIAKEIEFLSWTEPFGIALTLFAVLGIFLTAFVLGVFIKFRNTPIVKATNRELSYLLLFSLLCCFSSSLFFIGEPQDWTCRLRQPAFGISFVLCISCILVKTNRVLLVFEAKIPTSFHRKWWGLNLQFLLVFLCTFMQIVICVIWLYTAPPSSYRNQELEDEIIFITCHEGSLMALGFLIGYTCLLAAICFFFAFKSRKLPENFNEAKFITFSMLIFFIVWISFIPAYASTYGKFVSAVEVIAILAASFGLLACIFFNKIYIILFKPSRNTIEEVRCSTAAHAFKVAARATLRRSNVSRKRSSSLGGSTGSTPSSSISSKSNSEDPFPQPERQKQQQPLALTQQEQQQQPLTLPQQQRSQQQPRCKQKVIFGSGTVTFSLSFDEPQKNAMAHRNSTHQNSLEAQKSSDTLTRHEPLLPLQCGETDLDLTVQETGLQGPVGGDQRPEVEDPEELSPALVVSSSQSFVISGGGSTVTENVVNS
# Description: The compounds were characterized in an in vitro human calcium-sensing receptor (CaSR) assay, wherein HEK 293 cells that express the human calcium-sensing receptor were used to measure activity of exemplary compounds.
# Further structure-activity relationship studies were conducted using the in vitro cell assay in HEK 293 cells that express the human calcium-sensing receptor.
# The activity of a variety of peptides and conjugates was tested for their effects on the human CaSR. These studies were conducted by measuring IP1 production in HEK293 cells that express the human CaSR.
compound,measurement,setting,value
"CC(=O)N[C@H](CS)C(=O)N[C@H](CCCNC(=N)N)C(=O)N[C@H](CCCNC(=N)N)C(=O)N[C@H](CCCNC(=N)N)C(=O)N[C@H](CCCNC(=N)N)C(=O)N[C@H](CCCNC(=N)N)C(N)=O [SEQ ID NO: 5, Ac-crrrrr-NH2] (HELM PEPTIDE1{[ac].[dC].[dR].[dR].[dR].[dR].[dR].[am]}$$$$V2.0)",effect on plasma PTH,1K1C model animals,significant drop in plasma PTH
same,mean PTH reduction,1K1C model animals,60%
"CC(=O)N[C@H](CS)C(=O)N[C@H](CCCNC(=N)N)C(=O)N[C@H](CCCNC(=N)N)C(=O)N[C@H](CCCNC(=N)N)C(=O)N[C@H](CCCNC(=N)N)C(=O)N[C@H](CCCNC(=N)N)C(=O)N[C@H](CCCNC(=N)N)C(N)=O [SEQ ID NO: 6, Ac-crrrrrr-NH2]",effect on plasma PTH,1K1C model animals,significant drop in plasma PTH
same,mean PTH reduction,1K1C model animals,~40%
same,in vivo activity in comparison,PTH blood concentration; compared with SEQ ID NO:41,greater and more prolonged activity than Ac-crrrrrrrr-NH2 (SEQ ID NO:41)
same,decrease in percent PTH,normal rats,below the detection limit or essentially zero
"CC(=O)N[C@H](CS)C(=O)N[C@H](CCCNC(=N)N)C(=O)N[C@H](CCCNC(=N)N)C(=O)N[C@H](CCCNC(=N)N)C(=O)N[C@H](CCCNC(=N)N)C(=O)N[C@H](CCCNC(=N)N)C(=O)N[C@H](CCCNC(=N)N)C(=O)N[C@H](CCCNC(=N)N)C(N)=O [SEQ ID NO: 7, Ac-crrrrrrr-NH2] (HELM PEPTIDE1{[ac].[dC].[dR].[dR].[dR].[dR].[dR].[dR].[dR].[am]}$$$$V2.0)",effect on plasma PTH,1K1C model animals,significant drop in plasma PTH
"CC(=O)N[C@H](CS)C(=O)N[C@H](C)C(=O)N[C@H](CCCNC(=N)N)C(=O)N[C@H](CCCNC(=N)N)C(=O)N[C@H](CCCNC(=N)N)C(=O)N[C@H](CCCNC(=N)N)C(=O)N[C@H](CCCNC(=N)N)C(N)=O [SEQ ID NO: 8, Ac-carrrrr-NH2] (HELM PEPTIDE1{[ac].[dC].[dA].[dR].[dR].[dR].[dR].[dR].[am]}$$$$V2.0)",decrease in percent PTH,normal rats,below the detection limit or essentially zero
"CC(=O)N[C@H](CS)C(=O)N[C@H](CCCNC(=N)N)C(=O)N[C@H](CCCNC(=N)N)C(=O)N[C@H](C)C(=O)N[C@H](CCCNC(=N)N)C(=O)N[C@H](CCCNC(=N)N)C(=O)N[C@H](CCCNC(=N)N)C(N)=O [SEQ ID NO: 10, Ac-crrarrr-NH2] (HELM PEPTIDE1{[ac].[dC].[dR].[dR].[dA].[dR].[dR].[dR].[am]}$$$$V2.0)",decrease in percent PTH,normal rats,below the detection limit or essentially zero
"CC(=O)N[C@H](CS)C(=O)N[C@H](CCCNC(=N)N)C(=O)N[C@H](CCCNC(=N)N)C(=O)N[C@H](CCCNC(=N)N)C(=O)N[C@H](C)C(=O)N[C@H](CCCNC(=N)N)C(=O)N[C@H](CCCNC(=N)N)C(N)=O [SEQ ID NO: 11, Ac-crrrarr-NH2] (HELM PEPTIDE1{[ac].[dC].[dR].[dR].[dR].[dA].[dR].[dR].[am]}$$$$V2.0)",reduction in in vitro potency relative to Ac-crrrrrr-NH2 (SEQ ID NO:6),human CaSR,5-10 fold
same,in vivo percent PTH AUC reduction,normal rats; single IV administration,45%
"CC(=O)N[C@H](CS)C(=O)N[C@H](C)C(=O)N[C@H](CCCNC(=N)N)C(=O)N[C@H](C)C(=O)N[C@H](CCCNC(=N)N)C(=O)N[C@H](CCCNC(=N)N)C(=O)N[C@H](CCCNC(=N)N)C(N)=O [SEQ ID NO: 15, Ac-cararrr-NH2] (HELM PEPTIDE1{[ac].[dC].[dA].[dR].[dA].[dR].[dR].[dR].[am]}$$$$V2.0)","ability to activate the CaSR in vitro, in words",human CaSR,significantly reduced potency in vitro in activating the CaSR
"CC(=O)N[C@H](CS)C(=O)N[C@H](C)C(=O)N[C@H](CCCNC(=N)N)C(=O)N[C@H](CCCNC(=N)N)C(=O)N[C@H](CCCNC(=N)N)C(=O)N[C@H](C)C(=O)N[C@H](CCCNC(=N)N)C(N)=O [SEQ ID NO: 26, Ac-carrrar-NH2]",PTH blood concentration,PTH blood concentration; 0.5 mg/kg dose,decreased PTH blood concentration to a non-detectable level for up to 4 hours after dosing
same,"ability to activate the CaSR in vitro, in words",human CaSR,retained much of the potency seen with Ac-crrrrrr-NH2 (SEQ ID NO:6)
same,reduction in in vitro potency relative to Ac-crrrrrr-NH2 (SEQ ID NO:6),human CaSR,−3 fold
"CC(=O)N[C@H](C)C(=O)N[C@H](CCCNC(=N)N)C(=O)N[C@H](CCCNC(=N)N)C(=O)N[C@H](CCCNC(=N)N)C(=O)N[C@H](C)C(=O)N[C@H](CCCNC(=N)N)C(N)=O [SEQ ID NO: 29, Ac-arrrar-NH2] (HELM PEPTIDE1{[ac].[dA].[dR].[dR].[dR].[dA].[dR].[am]}$$$$V2.0)",PTH concentration,PTH blood concentration; 9 mg/kg dose,did not reduce PTH concentration
same,"ability to activate the CaSR in vitro, in words",human CaSR,dramatically reduced the ability of the compound to activate the CaSR
"CC(=O)N[C@H](CS)C(=O)N[C@H](CCCNC(=N)N)C(=O)N[C@H](CCCNC(=N)N)C(=O)N[C@H](CCCNC(=N)N)C(=O)N[C@H](CCCNC(=N)N)C(=O)N[C@H](CCCNC(=N)N)C(=O)N[C@H](CCCNC(=N)N)C(=O)N[C@H](CCCNC(=N)N)C(=O)N[C@H](CCCNC(=N)N)C(N)=O [SEQ ID NO: 41, Ac-crrrrrrrr-NH2] (HELM PEPTIDE1{[ac].[dC].[dR].[dR].[dR].[dR].[dR].[dR].[dR].[dR].[am]}$$$$V2.0)","ability to activate the CaSR in vitro, in words",human CaSR,more potent at activating the CaSR
"CC(=O)N[C@@H](CS)C(=O)N[C@H](C)C(=O)N[C@@H](CCCNC(=N)N)C(=O)N[C@H](CCCNC(=N)N)C(=O)N[C@@H](CCCNC(=N)N)C(=O)N[C@H](C)C(=O)N[C@@H](CCCNC(=N)N)C(N)=O [SEQ ID NO: 44, Ac-CaRrRaR-NH2]",decrease in potency relative to Ac-carrrar-NH2 (SEQ ID NO:26),human CaSR,< 4 fold
same,reduction in in vitro potency relative to Ac-crrrrrr-NH2 (SEQ ID NO:6),human CaSR,10 fold
